In publication PMC7414031, “Correlation between hemolytic activity, cytotoxicity and systemic in vivo toxicity of synthetic antimicrobial peptides” (Scientific Reports, 2020):
Converted amounts (≈) assume the structure as drawn. Square brackets hold non-standard residues; d marks the D form. Peptide text beside a SMILES is read from it. N(1-naphthylmethyl)Gly = O=C(O)CNCc1cccc2ccccc12; Nphe = O=C(O)CNCc1ccccc1; NBuGly = CCCCNCC(=O)O

Tests used:
[1] = tested on: human erythrocytes; experiment: in vitro; format: cell-based; details: for IC10 haemolysis: human erythrocytes; for IC50: red cells of human
Method in brief: (§1)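 Washed heparinized erythrocytes (~5 × 10^8 RBC/mL in PBS) incubated 1 h at 37 °C with peptides in serial 1:1 dilutions (150 to 1.2 µM final). Haemoglobin release read at 405 nm in supernatant; % haemolysis relative to 1% Triton X-100 (100%) and PBS diluent (0%).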

[2] = in vitro; format: cell-based, human; details: human
Method in brief: as §1

[3] = tested on: canine erythrocytes; experiment: in vitro; format: cell-based, dog; details: for IC10 haemolysis: canine erythrocytes; for IC50: red cells of canine
Method in brief: as §1

[4] = in vitro; format: cell-based, dog; details: dog
Method in brief: as §1

[5] = tested on: Pseudomonas aeruginosa; design: method as in PMID 30842436; details: cited from earlier work
[6] = tested on: HepG2 cells; format: cell-based, human; details: 1 h
Method: (§2) An immortalised human keratinocyte (HaCaT) cell line (Gift from David Gram Naym at Bispebjerg Hospital, Denmark), a human liver cancer cell line (HepG2; ATCC HB-8065) and a human epithelial cervical cancer cell line (HeLa; ATCC CCL-2) were cultured to ∼90% confluence after 21–25 h of growth under standard conditions (5% CO2 at 37 °C). Cells were cultured in Dulbecco’s Modified Eagle’s Medium supplemented with 10% (v/v) fetal bovine serum (FBS). All culture media were supplemented with penicillin (100 IU/mL) and streptomycin (100 μg/mL). All cell media and supplements were obtained from Sigma-Aldrich (St. Louis, MO, United States). The 96-well plates were supplied by Corning Costar (Sigma-Aldrich, Brøndby, Denmark). Cell viability assessment was performed on cell monolayers grown to ∼90% confluence in 96-well plates by using the MTS/PMS assay as previously described. Briefly, the adhered cells were washed with PBS solution (37 °C) (ThermoFisher Scientific, Roskilde) and exposed for 1 h at 37 °C to 100 μL of peptides dissolved in the medium also used for culturing of the cell line (at concentrations in the range 0–1,000 μg/mL). The cells were subsequently washed twice with 37 °C PBS and then 100 μL of an MTS/PMS solution in media, consisting of 240 μg/mL MTS (Promega, Madison, WI, United States) and 2.4 mg/mL PMS (Promega, Madison, WI, United States), was added to the cells, which then were incubated for 1 h at 37 °C protected from light. A plate reader (SpectraMax i3X; Molecular devices, San Jose, CA) was used to measure the absorbance at 492 nm. The relative viability was calculated by using 0.2% (w/v) sodium dodecyl sulfate (SDS) as the positive control, while cells exposed to medium without test compound were used as the negative control.

[7] = tested on: HaCaT cells; format: cell-based, human; details: 1 h
Method: as §2

[8] = tested on: Staphylococcus pseudintermedius; details: cited from earlier work; for S.p. MIC: Staphylococcus pseudintermedius, Table S5, in µM
[9] = tested on: Staphylococcus aureus; design: method as in PMID 30842436; details: cited from earlier work
[10] = in vitro; format: cell-based, bovine; details: bovine
Method in brief: as §1

[11] = in vitro; format: cell-based, rat (Sprague–Dawley); details: Sprague-Dawley, rat
Method in brief: as §1

[12] = tested on: rat erythrocytes; experiment: in vitro; format: cell-based, rat (Sprague–Dawley); details: for IC10 haemolysis: rat erythrocytes; for IC50: red cells of rat
Method in brief: as §1

[13] = Dose-ranging intravenous toxicity study in rats; format: in vivo, rat (WistarHan); details: rat
Method: All animals were injected with a single dose of 0.5 mL (2 mL/kg body weight) and it was slowly administered over 2 min and 10 s. Shorter cationic tripeptides[4] and synthetic AMPs[72] have previously been evaluated employing the intravenous route. It was an interesting observation that the animals survived the systemic tail vein injection seemingly unaffected. This observation is in contrast to related synAMPs investigated as intravenous antibiotics which induced acute toxicity and paralysis at higher concentrations.

[14] = tested on: HeLa cells; format: cell-based, human; details: 1 h
Method: as §2

[15] = at in vivo dosing concentrations
[16] = tested on: bovine erythrocytes; experiment: in vitro; format: cell-based; details: bovine erythrocytes
Method in brief: as §1

[17] = tested on: human erythrocytes; details: cited from earlier work

IC50 [1] [µM]	IC50 [3] [µM]	IC50 [12] [µM]	Structure (SMILES)	IC10 haemolysis [1] [µM]	hemolysis at 1 h, 150 µM [2] [%]	IC10 haemolysis [3] [µM]	hemolysis at 1 h, 150 µM [4] [%]	MIC against Pseudomonas aeruginosa [5] [µg/mL]	IC50 [7] [µM]	S.p. MIC [8] [µM]	MIC against Staphylococcus pseudintermedius [8] [µg/mL]	MIC against Staphylococcus aureus [9] [µg/mL]	hemolysis at 1 h, 150 µM [10] [%]	hemolysis at 1 h, 150 µM [11] [%]	IC10 haemolysis [12] [µM]	IC10 haemolysis [16] [µM]	Previously reported haemolytic activity against human erythrocytes (in words) [17]	Haemolysis at 80 µM (in words) [1]	Haemolysis at 80 µM (in words) [3]	Haemolysis at 80 µM (in words) [12]	other results
40	32	35.1	CCCCN(CC(=O)N[C@@H](CCCCN)C(=O)N[C@@H](CCCCN)C(=O)N[C@@H](CCCCN)C(N)=O)C(=O)CN(Cc1cccc2ccccc12)C(=O)CN(Cc1ccccc1)C(=O)CNCc1cccc2ccccc12 [Compound 2, (N1-Nal)Gly-(N-Phe)Gly-(N1-Nal)Gly-(N-Bu)Gly-Lys-Lys-Lys] (H-[N(1-naphthylmethyl)Gly][Nphe][N(1-naphthylmethyl)Gly][NBuGly]KKK-NH2)	11.2	78.1	12.8	100	32 (≈ 30.3 µM)	89	7.6	8 (≈ 7.57 µM)	16 (≈ 15.1 µM)	< 8	100	20.3						Haemolytic activity (in words) [1]: amongst the top five most haemolytic compounds; IC50 [6]: 355 µM
> 150	37	> 150	CC(C)C[C@H](NC(=O)[C@H](CCCCN)NC(=O)[C@@H](N)CCCCN)C(=O)N[C@@H](CCCCN)C(=O)N[C@@H](Cc1cccc2ccccc12)C(=O)N[C@@H](Cc1ccccc1)C(=O)N[C@@H](Cc1cccc2ccccc12)C(N)=O [Compound 6, Lys-Lys-Leu-Lys-(1-Nal)Ala-Phe-(1-Nal)Ala] (HELM PEPTIDE1{K.K.L.K.[O=C([C@H](Cc1cccc2ccccc12)N[*:1])[*:2]].F.[O=C([C@H](Cc1cccc2ccccc12)N[*:1])[*:2]].[am]}$$$$V2.0; N-terminus assumed)	55.6	42.7	12.2	101	8 (≈ 7.57 µM)			8 (≈ 7.57 µM)	32 (≈ 30.3 µM)	39.9	18.2	120.5	23.6	high in vitro haemolytic activity				
82.6	47.2	143	CC(C)C[C@H](NC(=O)[C@H](CCCCN)NC(=O)[C@H](CCCCN)NC(=O)[C@@H](N)CCCCN)C(=O)N[C@@H](Cc1cccc2ccccc12)C(=O)N[C@@H](Cc1ccccc1)C(=O)N[C@@H](Cc1cccc2ccccc12)C(N)=O [Compound 7, Lys-Lys-Lys-Leu-(1-Nal)Ala-Phe(1-Nal)Ala] (HELM PEPTIDE1{K.K.K.L.[O=C([C@H](Cc1cccc2ccccc12)N[*:1])[*:2]].F.[O=C([C@H](Cc1cccc2ccccc12)N[*:1])[*:2]].[am]}$$$$V2.0)	35.2	83.8	32.7	102	16 (≈ 15.1 µM)			8 (≈ 7.57 µM)	16 (≈ 15.1 µM)	16	54.3	76.9	118.8	high in vitro haemolytic activity	near total haemolysis	near total haemolysis	near total haemolysis	
95.6	42.7	87.8	CCCC[C@H](NC(=O)[C@H](CCCCN)NC(=O)[C@H](CCCCN)NC(=O)[C@@H](N)CCCCN)C(=O)N[C@@H](Cc1ccc2ccccc2c1)C(=O)N[C@@H](Cc1ccccc1)C(=O)N[C@@H](Cc1ccc2ccccc2c1)C(N)=O [Compound 18, Lys-Lys-Lys-Nle-(2-Nal)Ala-Phe-(2-Nal)Ala] (HELM PEPTIDE1{K.K.K.[Nle].[O=C([C@H](Cc1ccc2ccccc2c1)N[*:1])[*:2]].F.[O=C([C@H](Cc1ccc2ccccc2c1)N[*:1])[*:2]].[am]}$$$$V2.0)	18.7	58.8	21.4	101	8 (≈ 7.57 µM)			2 to 4	32 to 64	< 8	98.6	64.4		high in vitro haemolytic activity	near total haemolysis	near total haemolysis	near total haemolysis	

Structure (SMILES)	IC50 [1] [µM]	IC50 [3] [µM]	IC50 [12] [µM]	IC10 haemolysis [1] [µM]	hemolysis at 1 h, 150 µM [2] [%]	IC10 haemolysis [3] [µM]	hemolysis at 1 h, 150 µM [4] [%]	MIC against Pseudomonas aeruginosa [5] [µg/mL]	IC50 [7] [µM]	S.p. MIC [8] [µM]	MIC against Staphylococcus pseudintermedius [8] [µg/mL]	MIC against Staphylococcus aureus [9] [µg/mL]	hemolysis at 1 h, 150 µM [10] [%]	hemolysis at 1 h, 150 µM [11] [%]	IC10 haemolysis [12] [µM]	IC10 haemolysis [16] [µM]	Previously reported haemolytic activity against human erythrocytes (in words) [17]	Haemolysis at 80 µM (in words) [1]	Haemolysis at 80 µM (in words) [3]	Haemolysis at 80 µM (in words) [12]	other results
CC(C)C[C@@H](NC(=O)[C@@H](Cc1ccc2ccccc2c1)NC(=O)[C@@H](Cc1ccccc1)NC(=O)[C@H](N)Cc1ccc2ccccc2c1)C(=O)N[C@@H](CCCCN)C(=O)N[C@@H](CCCCN)C(=O)N[C@@H](CCCCN)C(N)=O [Compound 4, (2-Nal)Ala-Phe-(2-Nal)Ala-Leu-Lys-Lys-Lys] (HELM PEPTIDE1{[N[C@H](Cc1ccc2ccccc2c1)C(=O)[*:2]].[dF].[O=C([C@@H](Cc1ccc2ccccc2c1)N[*:1])[*:2]].[dL].K.K.K.[am]}$$$$V2.0)	> 150	> 150	> 150	> 150	< 8	> 150	< 8	> 64	433	15.1	16 (≈ 15.1 µM)	32 (≈ 30.3 µM)	< 8	< 8	> 150						Clinical signs of discomfort after injection ([13]; i.v. tail vein, high dose (1 mg/mL), two animals, after initial 30 min recovery): less mobility and reactivity to stimuli; Release of haemoglobin in vivo ([13]; i.v., high dose, 3 h): slightly elevated release of haemoglobin; Adverse effects at 8 h after injection ([13]; i.v., high dose, 8 h): no adverse effects were observed; Bilirubin concentration ([13]; i.v., plasma 24 h): no elevated concentration was observed; AST and ALT concentration ([13]; i.v., plasma 24 h, high dose for 4): slight increase of both AST and ALT; IC50 [14]: 783 µM; Solubility in PBS (in words) [15]: freely soluble
